Laboratory results as given in article PMC12196494, “Application of Solvent Evaporation to Generate Supersaturated Lipid-Based Formulations: Investigation of Drug Load and Formulation Quality” (Pharmaceutics, 2025).
In brackets after ≈: the same amount, converted by molar mass. Like-named read-outs stand apart in the source and are kept apart here. One block for each compound: values may come before it.

How the values were obtained:
[1] = Solubility studies in lipid-based formulations (MCT, LCM) at different temperatures; assay type: physicochemical; settings: for solubility: oil or lipid, thermodynamic from solid, n = 3, mean ± SD
Procedure: In the case that the added compound was dissolved during incubation, more compound was added. After incubation, the samples were centrifuged in an Eppendorf centrifuge 5430R (Hamburg, Germany) for 30 min at 17,500 rpm (=30,130 rcf) at either 20 °C (samples incubated at ambient temperature), 37 °C (samples incubated at 37 °C), or 40 °C (samples incubated at 60 °C). The supernatant was diluted and further analyzed by UPLC-UV, as described below.
The supernatants obtained from the solubility studies were diluted 1:50 with tetrahydrofuran, which was further diluted 1:100 with acetonitrile. […] This final dilution was analyzed by using an Acquity (UPLC™) H-class system composed of a quaternity solvent manager, a photodiode array (PDA) detector, a sample manager, and the Empower® software (version 3.0) for data processing. For the chromatographic analysis, a reversed-phase Waters Acquity BEH C18 with a 50 mm × 2.1 mm column (particle size 1.7 μm) including a precolumn (Waters Acquity BEH C18, 5 mm * 2.1 mm, particle size 1.7 μm) (Waters, Milford, CT, USA) was used.
The statistical analysis was performed using GraphPad Prism, Version 9.5.1.

[2] = for Stability: celecoxib in LCM
[3] = cited from earlier work
[4] = cited from earlier work; for Drug load, % of the equilibrium solubility at 37 °C: supersaturated type I and type II LBFs
[5] = MCT and LCM formulations, polarized light, Figure 1A-D
Text: For selected samples where precipitation was visible, a few droplets (enough volume to cover the area of a quartz microscope slide covered by a cover slip) were taken from the middle of the vial using a plastic pipette, and the crystallinity was confirmed by using a ZEISS Axio Vert.A1 microscope with polarized light function (Jena, Germany).

rats = test system: rats; parameters: method as in PMID 33387565; settings: doses of 1000–4000 ppm DCM; cited from earlier work
mice = test system: mice; parameters: method as in PMID 33387565; settings: doses of 1000–4000 ppm DCM; cited from earlier work
hamsters = test system: hamsters; parameters: method as in PMID 33387565; settings: doses of 1000–4000 ppm DCM; cited from earlier work

- Ratio of solubility 60 °C/Ambient temperature ([1]; LCM): 2.38 ± 0.04
- Ratio of solubility 60 °C/Ambient temperature ([1]; MCT): 1.85 ± 0.03
- solubility ([1]; long-chain monoglyceride (Maisine CC), Maisine CC, 37 °C, read-out: Solubility LCM): 15.57 ± 0.09 mg/mL (≈ 40.8 mM)
- solubility ([1]; long-chain monoglyceride (Maisine CC), Maisine CC, 60 °C, read-out: Solubility LCM): 24.6 ± 0.36 mg/mL (≈ 64.4 mM)
- solubility ([1]; long-chain monoglyceride (Maisine CC), Maisine CC, ambient temperature (~21 °C), read-out: Solubility LCM): 10.34 ± 0.08 mg/mL (≈ 27.1 mM)
- solubility ([1]; medium-chain triglyceride (Labrafac Lipophile WL1349), medium-chain triglyceride, 37 °C, read-out: Solubility MCT): 11.3 ± 0.05 mg/mL (≈ 29.6 mM)
- solubility ([1]; medium-chain triglyceride (Labrafac Lipophile WL1349), medium-chain triglyceride, 60 °C, read-out: Solubility MCT): 14.3 ± 0.25 mg/mL (≈ 37.5 mM)
- solubility ([1]; medium-chain triglyceride (Labrafac Lipophile WL1349), medium-chain triglyceride, ambient temperature (~21 °C), read-out: Solubility MCT): 7.72 ± 0.16 mg/mL (≈ 20.2 mM)
- Supersaturation ratio between 60 °C and ambient temperature ([1]; range over MCT and LCM): 1.85–2.38
- Drug load relative to the solubility at ambient temperature ([1]; supersaturation induced by heat (60 °C)): 238%
- Stability ([2]; DCM 1 + 2, stored at ambient): 7 to 14 days
- Stability ([2]; DCM 1 + 4, stored at ambient, n = 1): 7 to 14 days
- Drug load relative to the solubility at ambient temperature ([2]; solvent-based approach, DCM evaporation): up to 475%
- Solid state of the precipitate from the formulations [5]: crystalline
Structure (SMILES): Cc1ccc(-c2cc(C(F)(F)F)nn2-c2ccc(S(N)(=O)=O)cc2)cc1 [Celecoxib, celecoxib]
- Precipitation ([2]; celecoxib content of 371% or higher, both vehicles, stored at ambient): visible precipitation already within a timeframe of a few days
- log P [3]: 4.3
- Time to precipitation ([4]; heat-induced supersaturated type I and type II LBFs, in most cases): ≤ 14 days
- Drug load, % of the equilibrium solubility at 37 °C [4]: ≤ 136%

Structure (SMILES): ClCCl [DCM, dichloromethane]
- Risk for malignant tumors (rats): not in rats and hamsters
- Risk for malignant tumors (mice): increased risk for malignant tumors
- Risk for malignant tumors (hamsters): not in rats and hamsters

Structure (SMILES): CC(C)OC(=O)C(C)(C)Oc1ccc(C(=O)c2ccc(Cl)cc2)cc1 [Fenofibrate, fenofibrate]
- Time of storage to crystallization ([4]; heat-induced supersaturated LBF of MCT and phospholipids, prepared at 65 °C, stored at 20–23 °C): nine weeks

Structure (SMILES): C(=C\c1ccccc1)/CN1CCN(C(c2ccccc2)c2ccccc2)CC1 [cinnarizine]
- Drug load, % of the equilibrium solubility at 37 °C [4]: up to 138%

Structure (SMILES): CC(C)Cc1ccc(C(C)C(=O)O)cc1 (stereo not drawn) [ibuprofen]
- Time stable ([4]; some ibuprofen-loaded solid LBFs): up to 9 months
